Here are results for 1 compound from patent publication US7767240B2, “Microbiological control in poultry processing” (priority 2001, dated 2010).

In assay [1] the test system is Salmonella enteritidis ATCC 13076. Nature of the assay: Bacteria count per bird over 20-day storage (Example 4). The assay is classed as cell-based. To be noted: pH 8. How it is done: A study was conducted to determine the effect of Clorox® bleach, and 1,3-dibromo-5,5-dimethylhydantoin (DBDMH) on carcass bacteria residual after 1.5 hour in a chill tank solution and spoilage 20-day shelf life longevity (caused by bacteria contamination). Tests were conducted at pH 8 (adjusted by trisodium phosphate). Skin pigmentation (Minolta Color Meter L value or Lightness, a value or redness and b value or yellowness) were determined before and post-processing.
In general the study involved normal processing of 56-day-old birds, immersing carcasses first in a warm bath containing 10^4 per mL Escherichia coli, 10^4 per mL Salmonella enteritidis, 10^4 per mL Pseudomonas aeruginosa, 10^4 per mL Campylobacter jejuni, and 10^4 per mL spoilage bacteria each from […] strains (Listeria monocytogenes and Shigella sonnei). Carcass were then immersed in a chill tank “soup”, containing normal organic fluids (blood, fat, skin, and meat particles) and containing various disinfectants (termed test materials).
A DBDMH stock solution and test solutions, a bacteria stock solution, and a “chicken soup” were prepared as in Example 3. In addition, the bacterial broth treatments, the whole bird wash sampling procedure, and the methodologies used for quantitative or qualitative determinations for bacterial organisms were conducted as in Example 3.
In greater detail the trial events and experimental design used in this group of tests were as follows: • a) Test microorganisms used were: • Escherichia coli ATCC 11229 • Pseudomonas aeruginosa ATCC 15442 • Salmonella enteritidis ATCC 13076 • Shigella sonnei ATCC 9290 • Listeria monocytogenes ATCC 7644 • Campylobacter jejuni ATCC 29428 • b) Test Procedure: All test strains were grown individually at 35° C. for 24 hours in the media specified in Table 12. Cells were harvested by centrifugation at 10,000×g for 10 minutes and washed twice with Butterfield's Phosphate Buffer (BPB of pH 7.2). Cells were resuspended in BPB to obtain a cell suspension of approximately 1.0×10^8 CFU/mL for each microorganism. The target inoculum levels were approximately 10^6 CFU/mL in the final test solutions. In the cases of S. enteritidis and P. aeruginosa the species were washed by pouring into prepared sterile centrifuge tubes with cheesecloth filters. The culture was then pelleted and washed using above techniques and repeated 3 times. • c) The birds (56 days old) were processed under normal commercial conditions. • d) The bacteria were added to a large batch of the “chicken soup”, and then aliquots of the resultant mixture were distributed equally among the chill waters used for each test. Then the particular disinfectant composition under test was added to one of the chill waters. […]

For assay [2], the system named is S. sonnei, L. monocytogenes, E. coli, S. enteritidis, P. aeruginosa, C. jejuni. Nature of the assay: Mean % reduction from control over the six organisms (Example 3). The assay is classed as cell-based. To be noted: pH 8. How it is done: This group of tests was conducted to determine the effect of Clorox® bleach, Aquatize® biocide, and 1,3-dibromo-5,5-dimethylhydantoin (DBDMH) on carcass bacteria (Escherichia coli field strain) residual after 1,5-hour in a chill tank “soup”. Tests were conducted with soups at pH 7, pH 8 and pH 9 (adjusted by trisodium phosphate) for whole bird bacteria counts. Tests at pH 8 were conducted for individual bacteria counts.
In general the tests involved normal processing of 56-day-old birds and immersing the carcasses first in a warm bath containing 10^4 per mL Escherichia coli, 10^4 per mL Salmonella enteritidis, 10^4 per mL Pseudomonas aeruginosa, 10^4 per mL Campylobacter jejuni, and 10^4 per mL spoilage bacteria each from […] strains (Listeria monocytogenes and Shigella sonnei). The carcasses were then immersed in a chill tank “soup”, containing normal organic fluids (blood, fat, skin, and meat particles) and containing the microbiocides on the test.
The procedure used for whole bird wash sampling was as follows: • 1. All samples were kept at ≦50 degrees Fahrenheit following collection. • 2. Microbiological analyses of samples began within 24 hours of sample collection. • 3. Information on the individual sample identification, date of collection, time of collection (phase during shift), treatment group and location of sample point were recorded on each sample bottle. • 4. […]

`CC1(C)C(=O)N(Br)C(=O)N1Br` [DBDMH, 1,3-dibromo-5,5-dimethylhydantoin]: the “average bacteria count per bird, S. enteritidis” value (“average bacteria count per bird” for short) in assay [1] (Day 0, 10 ppm) is listed as 292 per bird; in assay [1] (Day 0, 20 ppm) it was 12 per bird; in assay [1] (Day 2, 10 ppm) it was 344 per bird; in assay [1] (Day 2, 20 ppm), 18 per bird; in assay [1] (Day 4, 10 ppm), 394 per bird; in assay [1] (Day 4, 20 ppm), 27 per bird. In addition, the “average bacteria count per bird” value in assay [1] (Day 6, 10 ppm) is listed as 433 per bird; in assay [1] (Day 6, 20 ppm), 55 per bird; in assay [1] (Day 8, 10 ppm), 507 per bird; in assay [1] (Day 8, 20 ppm), 104 per bird; in assay [1] (Day 10, 10 ppm), 616 per bird; in assay [1] (Day 10, 20 ppm), 212 per bird. Moreover, the “average bacteria count per bird” value in assay [1] (Day 12, 10 ppm) was determined as 740 per bird; in assay [1] (Day 12, 20 ppm) it was 413 per bird; in assay [1] (Day 14, 10 ppm), 919 per bird; in assay [1] (Day 14, 20 ppm), 832 per bird; in assay [1] (Day 16, 10 ppm), 1081 per bird; in assay [1] (Day 16, 20 ppm) it was 1711 per bird. Also, the “average bacteria count per bird” value turned out to be 1286 per bird in assay [1] (Day 18, 10 ppm); 2074 per bird in assay [1] (Day 18, 20 ppm); 1513 per bird in assay [1] (Day 20, 10 ppm); 2258 per bird in assay [1] (Day 20, 20 ppm). In addition, the “Mean % Reduction From Control” value came out at 85.8% in assay [2] (10 ppm) and 98.8% in assay [2] (20 ppm).
